This passage reports melting point and IC50 results from patent US20050119304A1, “Urea derivatives” (priority 2001, published 2005).

The structures appear in SMILES notation. Like-named read-outs stand apart in the source and are kept apart here. Where only a bound is given, the exact number is not on record here.

The target in one series is T1, human VR1 (Homo sapiens, UniProt Q8NER1).
T1 construct: The cloned hVR1 cDNA was constructed with pcDNA3 vector and transfected into a CHOluc9aeq cell line; expressed in transfected cells
As to the kind of experiment: Capsaicin-induced Ca2+ influx in the human VR1-transfected CHO cell line (Assay 1). Type of series: cell-based. From the text: [Measurement of Capsaicin-Induced Ca^2+ Influx in the Human VR1-Transfected CHO Cell Line] (Assay 1)
(1) Establishment of the Human VR1-CHOluc9aeq Cell Line
Human vanilloid receptor (hVR1) cDNA was cloned from libraries of axotomized dorsal root ganglia (WO2000/29577). The cloned hVR1 cDNA was constructed with pcDNA3 vector and transfected into a CHOluc9aeq cell line. The cell line contains aequorin and CRE-luciferase reporter genes as read-out signals. The transfectants were cloned by limiting dilution in selection medium (DMEM/F12. medium (Gibco BRL) supplemented with 10% FCS, 1.4 mM Sodium pyruvate, 20 mM HEPES, 0.15% Sodium bicarbonate, 100 U/ml penicillin, 100 μg/ml strept mycin, 2 mM glutamine, non-essential amino acids and 2 mg/ml G418). Ca^2+ influx was examined in the capsaicin-stimulated clones. A high responder clone was selected and used for further experiments in the project. The human VR1-CHOluc9aeq cells were maintained in the selection medium and passaged every 3-4 days at 1-2.5×10^5 cells/flask ([…]).
(2) Measurement of Ca^2+ Influx Using FDSS-3000
Human VR1-CHOluc9aeq cells were suspended in a culture medium which is the same as the selection medium except for G418 and seeded at a density of 1,000 cells per well into 384-well plates (black walled clear-base/Nalge Nunc International). Following the culture for 48 hrs the medium was changed to 2 μM Fluo-3 AM (Molecular Probes) and 0.02% Puronic F-127 in assay buffer (Hank's balanced salt solution (HBSS), 17 mM HEPES (pH7.4), 1 mM Probenecid, 0.1% BSA) and the cells were incubated for 60 min at 25° C. After washing twice with assay buffer the cells were incubated with a test compound or vehicle for 20 min at 25° C. Mobilization of cytoplasmic Ca^2+ was measured by FDSS-3000 (λex=488 nm, λem=540 nm/Hamamatsu Photonics) for 60 sec after the stimulation with 10 nM capsaicin. Integral R was calculated and compared with controls.
The data corresponds to the compounds as yielded by solid phase synthesis and thus to levels of purity of about 40 to 90%.

T1 sequence (Q8NER1 whole entry): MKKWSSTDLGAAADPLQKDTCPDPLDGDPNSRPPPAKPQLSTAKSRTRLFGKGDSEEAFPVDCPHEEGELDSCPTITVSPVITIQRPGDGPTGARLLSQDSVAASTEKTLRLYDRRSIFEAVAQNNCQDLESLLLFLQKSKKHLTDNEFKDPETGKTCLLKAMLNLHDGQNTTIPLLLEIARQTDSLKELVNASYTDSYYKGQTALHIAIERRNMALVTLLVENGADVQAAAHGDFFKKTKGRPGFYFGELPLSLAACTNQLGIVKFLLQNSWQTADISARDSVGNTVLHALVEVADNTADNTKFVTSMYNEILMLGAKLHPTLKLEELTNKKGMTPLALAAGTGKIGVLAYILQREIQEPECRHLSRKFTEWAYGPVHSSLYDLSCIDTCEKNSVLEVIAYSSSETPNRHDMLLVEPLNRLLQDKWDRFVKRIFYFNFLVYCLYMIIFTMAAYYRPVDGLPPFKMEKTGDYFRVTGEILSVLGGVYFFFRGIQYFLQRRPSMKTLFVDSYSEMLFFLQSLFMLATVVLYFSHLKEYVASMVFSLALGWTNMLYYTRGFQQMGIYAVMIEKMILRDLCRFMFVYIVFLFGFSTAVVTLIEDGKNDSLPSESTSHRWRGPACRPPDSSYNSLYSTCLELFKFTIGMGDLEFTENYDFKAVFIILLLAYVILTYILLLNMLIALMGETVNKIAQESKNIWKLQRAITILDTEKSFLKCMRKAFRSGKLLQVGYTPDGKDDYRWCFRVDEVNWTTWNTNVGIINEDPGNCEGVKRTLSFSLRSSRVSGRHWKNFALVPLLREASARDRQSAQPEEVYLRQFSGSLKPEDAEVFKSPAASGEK

Regarding `O=C(Nc1ccc(Cl)c(C(F)(F)F)c1)Nc1ccc2ncsc2c1` [Example 1, N-(1,3-benzothiazol-6-yl)-N′-[4-chloro-3-(trifluoromethyl)phenyl]urea], the melting point – broadly, the temperature, or range, at which the solid turns liquid – fell in the range of 225 to 228 °C. The IC50 at human VR1 (read-out: Activity grade) was below 100 nM.
`O=C(Nc1cccc(-c2ccccc2)c1)Nc1cccc2[nH]ccc12` [Example 2, N-(1,1′-biphenyl-3-yl)-N′-(1H-indol-4-yl)urea] returned a melting point of 213 to 215 °C. The IC50 at human VR1 (read-out: Activity grade) is below 100 nM.
In turn, `O=C(Nc1ccc(Cl)c(C(F)(F)F)c1)Nc1ccc2[nH]ncc2c1` [Example 3] had a melting point above 250 °C. Also, the IC50 at human VR1 (read-out: hVR1 class) was below 100 nM.
The matching figures for `O=C(Nc1ccc(Cl)c(C(F)(F)F)c1)Nc1cccc2[nH]nnc12` [Example 4]: 232 to 235 °C and 100 to 500 nM.
Taken in the same sequence, the figures for `O=C(Nc1ccc(Cl)c(C(F)(F)F)c1)Nc1ccc2[nH]ccc2c1` [Example 5] were 234 to 235 °C and 100 to 500 nM.
`O=C(Nc1ccc(Cl)c(C(F)(F)F)c1)Nc1ccc2cc[nH]c2c1` [Example 6] showed a melting point of 245 to 248 °C. The IC50 on human VR1 (read-out: hVR1 class) lay in the range of 100 to 500 nM.
Turning to `O=C(Nc1ccc(Cl)c(C(F)(F)F)c1)Nc1cccc2cc[nH]c12` [Example 7], the melting point lay in the range of 229 to 233 °C. Further, the IC50 at human VR1 (read-out: hVR1 class) is below 100 nM.
Taken in the same sequence, the figures for `O=C(Nc1ccc(Cl)c(C(F)(F)F)c1)Nc1cccc2[nH]ccc12` [Example 8] were 230 to 233 °C and below 100 nM.
The matching figures for `O=C(Nc1ccc(Cl)c(C(F)(F)F)c1)Nc1cccc2[nH]c(C(F)(F)F)nc12` [Example 9]: 165 to 169 °C and below 100 nM.
As for `O=C(Nc1ccc(Cl)c(C(F)(F)F)c1)Nc1ccc2[nH]nnc2c1` [Example 10], the melting point is above 250 °C. Also, the IC50 at human VR1 (read-out: hVR1 class) lay in the range of 100 to 500 nM.
The matching figures for `O=C(NCc1ccc(Br)cc1)Nc1cccc2cc[nH]c12` [Example 11]: 205 to 208 °C and below 100 nM.
The matching figures for `O=C(Nc1ccc(Oc2ccccc2)cc1)Nc1cccc2cc[nH]c12` [Example 12]: 216 to 218 °C and 100 to 500 nM.
For `O=C(Nc1ccc(Cl)c(C(F)(F)F)c1)Nc1ccc2c(c1)S(=O)(=O)C=C2` [Example 13], the IC50 on human VR1 (read-out: hVR1 class) was below 100 nM.
Consider `CSc1nc2ccc(NC(=O)Nc3ccc(Cl)c(C(F)(F)F)c3)cc2s1` [Example 14], for which the melting point lay within 236 to 238 °C. Moreover, at human VR1 (read-out: hVR1 class), the IC50 was 100 to 500 nM.
In turn, `Cc1nc2ccc(NC(=O)Nc3ccc(Cl)c(C(F)(F)F)c3)cc2s1` [Example 15] registered a melting point of 234 to 235 °C. Further, the IC50 on human VR1 (read-out: hVR1 class) was 100 to 500 nM.
Taken in the same sequence, the figures for `Cc1nc2cc(NC(=O)Nc3ccc(Cl)c(C(F)(F)F)c3)ccc2s1` [Example 16] were 152 to 155 °C and below 100 nM.
For the compound `O=C(Nc1ccc2c(c1)C(=O)OC2)Nc1ccc(Cl)c(C(F)(F)F)c1` [Example 17], the melting point is above 250 °C. Besides, at human VR1 (read-out: hVR1 class), the IC50 lay within 100 to 500 nM.
Regarding `Cc1nc2cc(NC(=O)Nc3ccc(Cl)c(Cl)c3)ccc2s1` [Example 29], the IC50 on human VR1 (read-out: hVR1 class) is below 100 nM.
As for `O=C(Nc1cccc(C(F)(F)F)c1)Nc1ccc2c(c1)S(=O)(=O)C=C2` [Example 44], the melting point is above 250 °C.
Regarding `Cc1nc2cc(NC(=O)Nc3cccc(-c4ccc(Cl)cc4)c3)ccc2s1` [Example 47], the IC50 at human VR1 (read-out: hVR1 class) lay within 100 to 500 nM.
Same read-out and setting: the same measure for `Cc1cccc(NC(=O)Nc2ccc3[nH]ncc3c2)c1` [Example 103]: 500 to 1000 nM.
The same measure, in the same setting: the same measure for `O=C(Nc1ccc(Cl)c(C(F)(F)F)c1)Nc1ccc2[nH]c(C(F)(F)F)nc2c1` [Example 104]: 500 to 1000 nM.
On to `O=C(NCc1ccc(Br)cc1)Nc1cccc2[nH]c(C(F)(F)F)nc12` [Example 105], for which, on human VR1 (read-out: hVR1 class), the IC50 is 500 to 1000 nM.
For `O=C(Nc1ccc(Oc2ccccc2)cc1)Nc1cccc2[nH]c(C(F)(F)F)nc12` [Example 106], on human VR1 (read-out: hVR1 class), the IC50 lay in the range of 100 to 500 nM.
